How the values were obtained:
human MR = target: T1, human MR (Homo sapiens, UniProt P08235); experiment: Mineralocorticoid Receptor Binding Assay (Method 1), [3H]-aldosterone competition; conditions: 0.5 nM [3H]-aldosterone, human MR expressed in Sf9 cells
T1 construct: The full length human MR gene is cloned from a human kidney or human brain cDNA library; inferred from own knowledge of the pAcHLT vector (N); made in house; host or cells: Sf9 insect cells (baculovirus)
T1 sequence (P08235 1-984): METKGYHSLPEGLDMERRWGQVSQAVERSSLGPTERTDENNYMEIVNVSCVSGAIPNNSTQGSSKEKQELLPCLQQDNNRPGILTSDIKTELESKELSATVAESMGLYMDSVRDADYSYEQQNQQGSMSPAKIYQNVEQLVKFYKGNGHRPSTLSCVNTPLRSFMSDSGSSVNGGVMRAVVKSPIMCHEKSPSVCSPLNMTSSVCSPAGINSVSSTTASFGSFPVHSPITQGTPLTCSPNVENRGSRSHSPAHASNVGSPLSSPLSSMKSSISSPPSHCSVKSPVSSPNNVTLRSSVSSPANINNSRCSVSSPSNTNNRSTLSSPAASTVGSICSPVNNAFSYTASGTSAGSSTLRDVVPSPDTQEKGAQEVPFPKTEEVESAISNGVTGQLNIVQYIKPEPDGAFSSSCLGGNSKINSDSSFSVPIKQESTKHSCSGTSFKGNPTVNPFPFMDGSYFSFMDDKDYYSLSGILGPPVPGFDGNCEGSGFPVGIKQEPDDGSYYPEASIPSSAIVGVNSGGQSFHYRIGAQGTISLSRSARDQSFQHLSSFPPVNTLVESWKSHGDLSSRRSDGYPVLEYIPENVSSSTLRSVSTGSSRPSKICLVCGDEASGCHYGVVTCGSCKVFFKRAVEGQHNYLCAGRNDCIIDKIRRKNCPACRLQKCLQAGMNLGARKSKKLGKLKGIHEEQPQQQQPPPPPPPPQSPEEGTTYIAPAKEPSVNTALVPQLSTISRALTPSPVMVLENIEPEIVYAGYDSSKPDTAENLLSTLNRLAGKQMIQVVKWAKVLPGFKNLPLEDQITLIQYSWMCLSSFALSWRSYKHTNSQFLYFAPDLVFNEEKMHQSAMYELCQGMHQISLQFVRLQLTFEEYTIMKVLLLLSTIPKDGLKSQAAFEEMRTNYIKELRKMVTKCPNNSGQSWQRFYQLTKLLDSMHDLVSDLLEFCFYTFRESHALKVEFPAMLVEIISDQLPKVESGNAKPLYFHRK
Procedure, shortened: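 Full-length human MR expressed in Sf9 cells via baculovirus; lysate supernatant (about 20-25 μg protein) incubated with 0.5 nM [3H]-aldosterone and test compound for about 16 h at 4° C. Buffer was Tris/molybdate/phosphate/pyrophosphate with 10% glycerol, pH 7.5; filter-bound complex counted by scintillation.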

[1] = target: T2, human GR (glucocorticoid receptor) (Homo sapiens, UniProt P04150); experiment: Alternative Binding Assay Protocol (Method 2), 293-GR lysate, 3H-dexamethasone competition; conditions: 0.3 nM 3H-dexamethasone
T2 construct: expressed in transfected cells; host or cells: 293 cells
T2 sequence (P04150 1-777): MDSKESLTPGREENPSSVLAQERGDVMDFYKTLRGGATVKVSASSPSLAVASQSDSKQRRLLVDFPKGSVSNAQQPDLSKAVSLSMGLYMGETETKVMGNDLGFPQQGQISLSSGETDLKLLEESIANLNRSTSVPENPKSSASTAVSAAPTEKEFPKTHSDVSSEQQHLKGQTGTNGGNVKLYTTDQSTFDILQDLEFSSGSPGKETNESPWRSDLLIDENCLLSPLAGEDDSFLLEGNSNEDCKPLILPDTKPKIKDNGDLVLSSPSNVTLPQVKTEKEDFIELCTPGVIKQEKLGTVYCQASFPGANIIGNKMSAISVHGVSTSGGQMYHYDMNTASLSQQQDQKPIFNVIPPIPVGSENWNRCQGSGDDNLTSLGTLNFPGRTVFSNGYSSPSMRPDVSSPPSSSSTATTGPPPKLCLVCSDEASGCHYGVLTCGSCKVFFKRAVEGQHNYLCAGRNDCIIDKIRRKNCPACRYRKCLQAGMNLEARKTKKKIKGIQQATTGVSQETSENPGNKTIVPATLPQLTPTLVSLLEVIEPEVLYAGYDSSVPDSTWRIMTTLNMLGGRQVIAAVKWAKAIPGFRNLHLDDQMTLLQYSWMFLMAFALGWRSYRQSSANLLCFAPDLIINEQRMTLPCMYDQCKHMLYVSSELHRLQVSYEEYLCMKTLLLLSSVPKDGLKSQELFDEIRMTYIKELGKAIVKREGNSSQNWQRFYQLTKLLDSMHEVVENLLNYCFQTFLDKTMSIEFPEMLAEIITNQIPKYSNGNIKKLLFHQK
Procedure: Alternative Binding Assay Protocol for MR, GR, AR, and PR (Method 2):
Cell lysates from 293 cells overexpressing human GR (glucocorticoid receptor), AR (androgen receptor), MR (mineralocorticoid receptor) or PR (progesterone-receptor) are used for competition binding assays to determine Ki values for test compounds. […] Competing compounds are added at various concentraions in half-log increments. Non-specific binding is determined in the presence of 500 nM dexamethasone for GR binding, 500 nM aldosterone for MR binding, or 500 nM methyltrienolone for AR and PR binding. The binding reaction (140 μl) is incubated for overnight at 4° C., then 70 μl of cold charcoal-dextran buffer (containing per 50 ml of assay buffer, 0.75 g of charcoal and 0.25 g of dextran) is added to each reaction. Plates are mixed 8 minutes on an orbital shaker at 4° C. Plates are then centrifuged at 3,000 rpm at 4° C. for 10 minutes. An aliquot of 120 μl of the mix is transferred to another 96-well plate and 175 μl of Wallac Optiphase “Hisafe 3” scintillation fluid is added to each well. Plates are sealed and shaken vigorously on an orbital shaker. After an incubation of 2 hrs, plates are read in a Wallac Microbeta counter. […] The Kd for ^3H-dexamethasone for GR binding, ^3H-methyltrienolone for AR binding, ^3H-aldosterone for MR binding, or ^3H-methyltrienolone for PR binding, is determined by saturation binding. The IC50 values for compounds are converted to Ki using Cheng-Prusoff equation and the Kd determined by saturation binding assay.

[2] = tested on: patients suffering from advanced CHF; conditions: in combination with standard CHF therapy; cited from earlier work

Compound	Ki (human MR) [nM]	Ki [1] [nM]	melting point	reduced cardiac related mortality [2] [%]	reduced frequency of hospitalization [2] [%]
CCC(CC)(c1ccc2[nH]ncc2c1)c1c[nH]c2c(NS(C)(=O)=O)cccc12 [Example 138, N-{3-[1-Ethyl-1-(1H-indazol-5-yl)-propyl]-1H-indol-7-yl}-methanesulfonamide]	< 500	< 500	123 to 128 °C		
CCC(CC)(c1ccc2ccsc2c1)c1c[nH]c2c(NS(C)(=O)=O)cccc12 [Example 139, N-[3-(1-Benzo[b]thiophen-6-yl-1-ethyl-propyl)-1H-indol-7-yl]-methanesulfonamide]	< 500	< 500	97 to 107 °C		
CCC(CC)(c1ccc2sc(N)nc2c1)c1c[nH]c2c(NS(C)(=O)=O)cccc12 [Example 141, N-{3-[1-(2-Amino-benzothiazol-5-yl)-1-ethyl-propyl]-1H-indol-7-yl}-methanesulfonamide]	< 500	< 500	260 to 263 °C (dec.)		
CCC(CC)(c1ccc2ocnc2c1)c1c[nH]c2c(NS(C)(=O)=O)cccc12 [Example 146, N-[3-(1-Benzooxazol-5-yl-1-ethyl-propyl)-1H-indol-7-yl]-methanesulfonamide]	< 500	< 500	132 to 135 °C		
CCC(CC)(c1ccc2nc(NC(C)=O)sc2c1)c1c[nH]c2c(NS(C)(=O)=O)cccc12 [Example 147, N-{6-[1-Ethyl-1-(7-methanesulfonylamino-1H-indol-3-yl)-propyl]-benzothiazol-2-yl}-acetamide]	< 500	< 500	286 to 288 °C		
CCC(CC)(c1ccc2nc(Cl)sc2c1)c1c[nH]c2c(NS(C)(=O)=O)cccc12 [Example 148, N-{3-[1-(2-Chloro-benzothiazol-6-yl)-1-ethyl-propyl]-1H-indol-7-yl}-methanesulfonamide]	< 500	< 500	180 to 190 °C		
CCC(CC)(c1ccc2[nH]nnc2c1)c1c[nH]c2c(NS(C)(=O)=O)cccc12 [Example 153, N-{3-[1-(3H-Benzotriazol-5-yl)-1-ethyl-propyl]-1H-indol-7-yl}-methanesulfonamide]	< 500	< 500	165 to 172 °C		
CCC(CC)(c1ccc2sc(Cl)nc2c1)c1c[nH]c2c(NS(C)(=O)=O)cccc12 [Example 161, N-{3-[1-(2-Chloro-benzothiazol-5-yl)-1-ethyl-propyl]-1H-indol-7-yl}-methanesulfonamide]	< 500	< 500	217 to 220 °C		
CC(=O)S[C@@H]1CC2=CC(=O)CC[C@]2(C)[C@H]2CC[C@@]3(C)[C@@H](CC[C@@]34CCC(=O)O4)[C@H]12 [spironolactone]				30	35
